Results as given in patent US12448391B2, “Bicyclic derivatives for treating endoparasites” (Elanco Tiergesundheit AG, priority 2019, dated 2025).

Legend:
H. contortus larvae = test: H. contortus Larval Development Assay (Hc LDA); settings: Haemonchus contortus, read-out: EC50 (motility inhibition)
Experimental: Ruminant Gastrointestinal (H. contortus Larval Development Assay (Hc LDA)):
H.c. eggs isolated from lamb fecal matter are allowed to hatch overnight. Test compounds are diluted in DMSO and added to a 96-well plate containing appropriate media. H.c. larvae are added to each well and plates are incubated for the desired time(s). Motility is assessed using an LCD camera imaging system. Percent motility inhibition values are generated relative to the average of the DMSO-only wells.

D. immitis microfilariae = test: Dog heart worm microfilariae motility assay; type: cell-based; settings: Dirofilaria immitis, read-out: EC50 (motility inhibition)

For `CN(C)c1c(C(=O)NN2CCOc3ccccc32)cnc2c(-c3cc(Cl)cc(Cl)c3)nccc12` [Example 2.1, 8-(3,5-dichlorophenyl)-N-(2,3-dihydro-1,4-benzoxazin-4-yl)-4-(dimethylamino)-1,7-naphthyridine-3-carboxamide], the EC50 (H. contortus larvae) was under 1 µg/mL and the EC50 (D. immitis microfilariae) was under 0.1 µg/mL.
With `CN(C)c1c(C(=O)NN2CCCc3ccccc32)cnc2c(-c3cc(Cl)cc(Cl)c3)nccc12` [Example 2.2, 8-(3,5-dichlorophenyl)-N-(3,4-dihydro-2H-quinolin-1-yl)-4-(dimethylamino)-1,7-naphthyridine-3-carboxamide] the EC50 (H. contortus larvae) was under 1 µg/mL and the EC50 (D. immitis microfilariae) was under 0.1 µg/mL.
`O=C(NN1CCOc2ccccc21)c1cnc2c(-c3cc(Cl)cc(Cl)c3)nccc2c1N1CCOCC1` [Example 2.3, 8-(3,5-dichlorophenyl)-N-(2,3-dihydro-1,4-benzoxazin-4-yl)-4-morpholino-1,7-naphthyridine-3-carboxamide] was tested, and the EC50 (H. contortus larvae) was under 1 µg/mL and the EC50 (D. immitis microfilariae) was under 0.1 µg/mL.
For `O=C(NN1CCOc2ccccc21)c1cnc2c(-c3cc(F)cc(F)c3F)nccc2c1N1CCOCC1` [Example 2.4, N-(2,3-dihydro-1,4-benzoxazin-4-yl)-4-morpholino-8-(2,3,5-trifluorophenyl)-1,7-naphthyridine-3-carboxamide], the EC50 (H. contortus larvae) was under 1 µg/mL and the EC50 (D. immitis microfilariae) was under 0.1 µg/mL.
With `CON(C)c1c(C(=O)NN2CCOc3ccccc32)cnc2c(-c3cc(F)cc(F)c3F)nccc12` [Example 2.5, N-(2,3-dihydro-1,4-benzoxazin-4-yl)-4-[methoxy(methyl)amino]-8-(2,3,5-trifluorophenyl)-1,7-naphthyridine-3-carboxamide] the EC50 (H. contortus larvae) was under 1 µg/mL and the EC50 (D. immitis microfilariae) was under 0.1 µg/mL.
In the case of `O=C(NN1CCOc2ccccc21)c1cnc2c(-c3cc(Cl)cc(C(F)(F)F)c3)nccc2c1N1CCOCC1` [Example 2.6, 8-[3-chloro-5-(trifluoromethyl)phenyl]-N-(2,3-dihydro-1,4-benzoxazin-4-yl)-4-morpholino-1,7-naphthyridine-3-carboxamide], the EC50 (H. contortus larvae) is reported as under 1 µg/mL and the EC50 (D. immitis microfilariae) is reported as under 0.1 µg/mL.
`O=C(NN1CCOc2ccccc21)c1cnc2c(-c3cccc(Cl)c3Cl)nccc2c1N1CCOCC1` [Example 2.7, N-(2,3-dihydro-1,4-benzoxazin-4-yl)-4-morpholino-8-(2,3-dichlorophenyl)-1,7-naphthyridine-3-carboxamide] gave an EC50 (D. immitis microfilariae) of under 0.1 µg/mL.
With `O=C(NN1CCOc2ccccc21)c1cnc2c(-c3cc(Cl)c(F)c(Cl)c3)nccc2c1N1CCOCC1` [Example 2.8, 8-(3,5-dichloro-4-fluoro-phenyl)-N-(2,3-dihydro-1,4-benzoxazin-4-yl)-4-morpholino-1,7-naphthyridine-3-carboxamide] the EC50 (H. contortus larvae) was under 1 µg/mL and the EC50 (D. immitis microfilariae) was under 0.1 µg/mL.
For `CN(C)c1c(C(=O)NN2CCOc3ccccc32)cnc2c(-c3cc(Cl)cc(Cl)c3)ccnc12` [Example 3.1, 8-(3,5-dichlorophenyl)-N-(2,3-dihydro-1,4-benzoxazin-4-yl)-4-(dimethylamino)-1,5-naphthyridine-3-carboxamide], the EC50 (H. contortus larvae) was under 1 µg/mL and the EC50 (D. immitis microfilariae) was under 0.1 µg/mL.
Work on `CN(C)c1c(C(=O)NN2CCOc3ccccc32)cnc2c(-c3cccc(Cl)c3Cl)ccnc12` [Example 3.2, 8-(2,3-dichlorophenyl)-N-(2,3-dihydro-1,4-benzoxazin-4-yl)-4-(dimethylamino)-1,5-naphthyridine-3-carboxamide] yielded an EC50 (H. contortus larvae) of under 1 µg/mL and an EC50 (D. immitis microfilariae) of under 0.1 µg/mL.
In the case of `O=C(NN1CCOc2ccccc21)c1cnc2c(-c3cc(Cl)cc(Cl)c3)ccnc2c1N1CCOCC1` [Example 3.3, 8-(3,5-dichlorophenyl)-N-(2,3-dihydro-1,4-benzoxazin-4-yl)-4-morpholino-1,5-naphthyridine-3-carboxamide], the EC50 (H. contortus larvae) is reported as under 1 µg/mL and the EC50 (D. immitis microfilariae) is reported as under 0.1 µg/mL.
Work on `O=C(NN1CCOc2ccccc21)c1cnc2c(-c3cc(F)cc(F)c3F)ccnc2c1N1CCOCC1` [Example 3.4, N-(2,3-dihydro-1,4-benzoxazin-4-yl)-4-morpholino-8-(2,3,5-trifluorophenyl)-1,5-naphthyridine-3-carboxamide] yielded an EC50 (H. contortus larvae) of under 1 µg/mL and an EC50 (D. immitis microfilariae) of under 0.1 µg/mL.
Compound `CN(C)c1c(C(=O)NN2CCOc3ccccc32)ccc2c(-c3cc(Cl)cc(Cl)c3)cccc12` [Example 4.1, 5-(3,5-dichlorophenyl)-N-(2,3-dihydro-1,4-benzoxazin-4-yl)-1-(dimethylamino)naphthalene-2-carboxamide] has an EC50 (H. contortus larvae) of under 1 µg/mL and an EC50 (D. immitis microfilariae) of under 0.1 µg/mL.
With `CN(C)c1c(C(=O)NN2CCOc3ccccc32)cnc2c(-c3cc(Cl)cc(Cl)c3)cccc12` [Example 5.1, 8-(3,5-dichlorophenyl)-N-(2,3-dihydro-4H-benzo[b][1,4]oxazin-4-yl)-4-(dimethylamino)quinoline-3-carboxamide] the EC50 (H. contortus larvae) was under 1 µg/mL and the EC50 (D. immitis microfilariae) was under 0.1 µg/mL.
Work on `O=C(NN1CCOc2ccccc21)c1cnc2c(-c3cccc(Cl)c3Cl)cccc2c1N1CCOCC1` [Example 5.2, 8-(2,3-dichlorophenyl)-N-(2,3-dihydro-1,4-benzoxazin-4-yl)-4-morpholino-quinoline-3-carboxamide] yielded an EC50 (H. contortus larvae) of under 1 µg/mL and an EC50 (D. immitis microfilariae) of under 0.1 µg/mL.
For `O=C(NN1CCOc2ccccc21)c1cnc2c(-c3cc(Cl)cc(Cl)c3)cccc2c1N1CCOCC1` [Example 5.3, 8-(3,5-dichlorophenyl)-N-(2,3-dihydro-1,4-benzoxazin-4-yl)-4-morpholino-quinoline-3-carboxamide], the EC50 (H. contortus larvae) was under 1 µg/mL and the EC50 (D. immitis microfilariae) was under 0.1 µg/mL.
Compound `O=C(NN1CCOc2ccccc21)c1cnc2c(-c3cc(F)cc(F)c3F)c(F)ccc2c1N1CCOCC1` [Example 5.4, N-(2,3-dihydro-1,4-benzoxazin-4-yl)-7-fluoro-4-morpholino-8-(2,3,5-trifluorophenyl)quinoline-3-carboxamide] has an EC50 (H. contortus larvae) of under 1 µg/mL and an EC50 (D. immitis microfilariae) of under 0.1 µg/mL.
Compound `O=C(NN1CCOc2ccccc21)c1cnc2c(-c3cc(F)cc(F)c3F)cccc2c1N1CCOCC1` [Example 5.6, N-(2,3-dihydro-1,4-benzoxazin-4-yl)-4-morpholino-8-(2,3,5-trifluorophenyl)quinoline-3-carboxamide] has an EC50 (H. contortus larvae) of under 1 µg/mL and an EC50 (D. immitis microfilariae) of under 0.1 µg/mL.
Compound `O=C(NN1CCOc2ccccc21)c1cnc2c(-c3cc(Cl)cc(Cl)c3)c(F)ccc2c1N1CCOCC1` [Example 5.7, 8-(3,5-dichlorophenyl)-N-(2,3-dihydro-1,4-benzoxazin-4-yl)-7-fluoro-4-morpholino-quinoline-3-carboxamide] has an EC50 (H. contortus larvae) of under 1 µg/mL and an EC50 (D. immitis microfilariae) of under 0.1 µg/mL.
In the case of `O=C(NN1CCOc2ccccc21)c1cnc2c(-c3cc(F)cc(F)c3)c(F)ccc2c1N1CCOCC1` [Example 5.8, 8-(3,5-difluorophenyl)-N-(2,3-dihydro-1,4-benzoxazin-4-yl)-7-fluoro-4-morpholino-quinoline-3-carboxamide], the EC50 (H. contortus larvae) is reported as under 1 µg/mL and the EC50 (D. immitis microfilariae) is reported as under 0.1 µg/mL.
Work on `O=C(NN1CCOc2ccccc21)c1cnc2c(-c3cc(Cl)nc(C(F)(F)F)c3)cccc2c1N1CCOCC1` [Example 5.11, 8-[2-chloro-6-(trifluoromethyl)-4-pyridyl]-N-(2,3-dihydro-1,4-benzoxazin-4-yl)-4-morpholino-quinoline-3-carboxamide] yielded an EC50 (H. contortus larvae) of under 1 µg/mL and an EC50 (D. immitis microfilariae) of under 0.1 µg/mL.
Compound `O=C(NN1CCOc2ccccc21)c1cnc2c(-c3cc(Cl)nc(Cl)c3)cccc2c1N1CCOCC1` [Example 5.12, 8-(2,6-dichloro-4-pyridyl)-N-(2,3-dihydro-1,4-benzoxazin-4-yl)-4-morpholino-quinoline-3-carboxamide] has an EC50 (H. contortus larvae) of under 1 µg/mL and an EC50 (D. immitis microfilariae) of under 0.1 µg/mL.
`O=C(NN1CCOc2ccccc21)c1cnc2c(-c3cc(Cl)cc(Cl)c3F)cccc2c1N1CCOCC1` [Example 5.13, 8-(3,5-dichloro-2-fluoro-phenyl)-N-(2,3-dihydro-1,4-benzoxazin-4-yl)-4-morpholino-quinoline-3-carboxamide] was tested, and the EC50 (H. contortus larvae) was under 1 µg/mL and the EC50 (D. immitis microfilariae) was under 0.1 µg/mL.
Work on `O=C(NN1CCOc2ccccc21)c1cnc2c(-c3cc(Cl)cnc3F)cccc2c1N1CCOCC1` [Example 5.14, 8-(5-chloro-2-fluoro-3-pyridyl)-N-(2,3-dihydro-1,4-benzoxazin-4-yl)-4-morpholino-quinoline-3-carboxamide] yielded an EC50 (H. contortus larvae) of under 1 µg/mL and an EC50 (D. immitis microfilariae) of under 0.1 µg/mL.
`O=C(NN1CCOc2ccccc21)c1cnc2c(-c3cc(F)cc(F)c3F)cccc2c1N1CCS(=O)(=O)CC1` [Example 5.15, N-(2,3-dihydro-1,4-benzoxazin-4-yl)-4-(1,1-dioxo-1,4-thiazinan-4-yl)-8-(2,3,5-trifluorophenyl)quinoline-3-carboxamide] showed an EC50 (H. contortus larvae) of under 1 µg/mL and an EC50 (D. immitis microfilariae) of under 0.1 µg/mL.
`O=C(NN1CCOc2ccccc21)c1cnc2c(-c3cc(F)c(F)cc3F)cccc2c1N1CCOCC1` [Example 5.16, N-(2,3-dihydro-1,4-benzoxazin-4-yl)-4-morpholino-8-(2,4,5-trifluorophenyl)quinoline-3-carboxamide] showed an EC50 (H. contortus larvae) of under 1 µg/mL and an EC50 (D. immitis microfilariae) of under 0.1 µg/mL.
`O=C(NN1CCOc2ccccc21)c1cnc2c(-c3cncc(Cl)n3)cccc2c1N1CCOCC1` [Example 5.17, 8-(6-chloropyrazin-2-yl)-N-(2,3-dihydro-1,4-benzoxazin-4-yl)-4-morpholino-quinoline-3-carboxamide] was tested, and the EC50 (H. contortus larvae) was under 1 µg/mL and the EC50 (D. immitis microfilariae) was under 0.1 µg/mL.
Compound `O=C(NN1CCOc2ccccc21)c1cnc2c(-c3cncc(Cl)c3Cl)cccc2c1N1CCOCC1` [Example 5.18, 8-(4,5-dichloro-3-pyridyl)-N-(2,3-dihydro-1,4-benzoxazin-4-yl)-4-morpholino-quinoline-3-carboxamide] has an EC50 (H. contortus larvae) of under 1 µg/mL and an EC50 (D. immitis microfilariae) of under 0.1 µg/mL.
For `O=C(NN1CCOc2ccccc21)c1cnc2c(-c3cc(Cl)cc(F)c3F)cccc2c1N1CCOCC1` [Example 5.19, 8-(5-chloro-2,3-difluoro-phenyl)-N-(2,3-dihydro-1,4-benzoxazin-4-yl)-4-morpholino-quinoline-3-carboxamide], the EC50 (H. contortus larvae) was under 1 µg/mL and the EC50 (D. immitis microfilariae) was under 0.1 µg/mL.
Work on `O=C(NN1CCOc2ccccc21)c1cnc2c(-c3cc(F)c(F)c(F)c3F)cccc2c1N1CCOCC1` [Example 5.20, N-(2,3-dihydro-1,4-benzoxazin-4-yl)-4-morpholino-8-(2,3,4,5-tetrafluorophenyl)quinoline-3-carboxamide] yielded an EC50 (H. contortus larvae) of under 1 µg/mL and an EC50 (D. immitis microfilariae) of under 0.1 µg/mL.
Compound `O=C(NN1CCOc2ccccc21)c1cnc2c(-c3cncc(F)c3Cl)cccc2c1N1CCOCC1` [Example 5.21, 8-(4-chloro-5-fluoro-3-pyridyl)-N-(2,3-dihydro-1,4-benzoxazin-4-yl)-4-morpholino-quinoline-3-carboxamide] has an EC50 (H. contortus larvae) of under 1 µg/mL and an EC50 (D. immitis microfilariae) of under 0.1 µg/mL.
